Experimental data taken from patent US6537744B1, “Use of biomarkers in saliva to evaluate the toxicity of agents and the function of tissues in both biomedical and environmental applications” (priority 1995, dated 2003).
Where “and” joins values, the source holds several entries; their conditions need not be identical. Equal values may be shown once.

Assays:
[1] = tested on: carboxylase in human saliva; assay: Inhibition of carboxylase in human saliva (p-nitrophenylvalerate hydrolysis, 400 nm); assay type: biochemical; conditions: for inhibition of carboxylase (in words): human saliva
Description: The carboxylase activity in saliva samples is monitored by the hydrolysis of p-nitrophenylvalerate to the readily detectable p-nitrophenol. The concentration of p-nitrophenol in the sample is measured spectrophotometrically at 400 nm, and the value is calculated from p-nitrophenol standard curve (Table 3 and FIG. 4). Values for carboxylase activity in saliva (nmol. min-1 per mL of saliva) are presented in Tables 4-8 and showing in FIG. 5 and FIG. 6. The average specific activity for carboxylase in human saliva is about 47 nmol min^−1 per mL.
The assay for carboxylase consists of 4 mL of tris-HCl buffer (pH 7.0) that contain 25 μL of p-nitrophenylvalerate (13.8 mg/mL of alcohol) and 50-500 μL of human saliva. […] In the inhibition study, the agent is incubated with saliva for about 15-20 minutes before the addition of p-nitrophenylvalerate. Organophosphate concentration is verified by gas chromatography using standard methods as described by Knaak et al. (1993).

[2] = tested on: acetylcholinesterase in human saliva; assay: Inhibition of acetylcholinesterase in human saliva (acetylthiocholine iodide/DTNB, 405 nm); assay type: biochemical; conditions: for inhibition of acetylcholinesterase (in words): human saliva
Description: The hydrolysis of acetylthiocholine iodide (an analog of acetylcholine iodides) by the saliva enzyme or enzymes is measured by generating the yellow 5-thio-2-nitrobenzoate with an absorbance maximum at 405 nm. The rate of change of absorbance is directly proportional to acetylcholinesterase activity. In this procedure, 0.1-1 mL of saliva (3.261 mg protein/mL) is incubated with 100 μL of acetylthiocholine iodide (0.018M) (lot #10H0653 Sigma) for 30-180 minute at 37° C. in 4.0 mL phosphate buffer (pH 7.8). After the incubation, a 0.2 mL of DTNB is added and the sample is read at 405 nm. The enzyme activity is calculated from glutathione standard curve (Table 9 and FIG. 9). Values for AChE activity in human saliva and enzyme kinetics are presented in Tables 10-14 and show in FIG. 10 through FIG. 14.
The AChE specific activity in saliva is about 4 nmol minute^−1 per mL of saliva. […] The percent of enzyme inhibition by organophosphate is calculated and presented in Tables 13-14 and showing in FIG. 15.

[3] = 60 μg/mL, Test #2, 50 μL saliva, 20 min preincubation
[4] = 500 μg/ml, test #1, 200 μL saliva, 15 min preincubation, 37° C.
[5] = 240 μg of isofenphos in 4.0 mL, Test #2, 200 μL saliva, 37° C.
[6] = 22 μg/mL, Test #2, 50 μL saliva, 20 min preincubation
[7] = 29 μg/ml in Tris/Citrate, test #1, 200 μL saliva, 15 min preincubation, 37° C.

| Structure (SMILES) | % Act. [1, 3] [%] | Absorb. at 400 nm for 65 min. [1, 3] | Absorb. at 400 nm for 100 min. [1, 3] | % Inhib. [1, 4] [%] | Absorb. at 400 nm for 20 min. [1, 4] | Absorb. at 400 nm for 60 min. [1, 4] | inhibition of carboxylase (in words) [1] | Absorb. at 405 nm for 50 min. [2, 5] | Absorb. at 405 nm for 110 min. [2, 5] | Absorb. at 405 nm for 165 min. [2, 5] | Activity ([2]; 240 μg of isofenphos in 4.0 mL, Test #2, 200 μL saliva, 37° C. (no inhibitor: 1.14)) [nmol/min] | inhibition of acetylcholinesterase (in words) [2] | % Act. [1, 6] [%] | Absorb. at 400 nm for 20 min. [1, 6] | Absorb. at 400 nm for 100 min. [1, 6] | % Inhib. [1, 7] [%] | Absorb. at 400 nm for 20 min. [1, 7] | Absorb. at 400 nm for 60 min. [1, 7] |
| --- | --- | --- | --- | --- | --- | --- | --- | --- | --- | --- | --- | --- | --- | --- | --- | --- | --- | --- |
| CCOP(=S)(NC(C)C)Oc1ccccc1C(=O)OC(C)C (centres unmarked) [Isofenphos, isofenphos] | 92 | 2.0 and 1.1 | 2.0 and 1.5 | 84 | .33 | .75 | inhibited | .41 | .43 | .51 | 1.02 | inhibited | – | – | – | – | – | – |
| CCOP(=O)(OCC)Oc1ccc([N+](=O)[O-])cc1 [Paraoxon, paraoxon] | – | – | – | – | – | – | inhibited | – | – | – | – | inhibited | 40 | .23 | .76 | 99 | .03 | .14 |
